{
  "source": "patent US20050130232A1",
  "about": "“Methods of screening for compounds that modulate hormone receptor activity” (Allergan, Inc., priority 2001, published 2005)",
  "key": {"[1]": {"tested_on": "RXR-associated protein kinase in Flag-RXR immunocomplexes", "experiment": "In vitro kinase reaction with [γ-32P]ATP on Flag-RXR immunocomplexes from transfected HEK 293 cells", "type": "cell-based, human", "source_text": "(§1) Total cell lysates were immunoprecipitated with anti-Flag antibody (M2). Aliquots of the immunocomplexes were used for the in vitro kinase reaction with [γ-^32P]ATP and separated on SDS-PAGE. Phosphorylated proteins were detected by autoradiography (top panel). Additional aliquots of the immunocomplexes were subjected to immunoblotting with polyclonal anti-RXR antisera (D20; bottom panel). (B) Phosphoamino acid analysis. Flag-RXR and the 160-kDa protein were phosphorylated in vitro and separated on SDS-PAGE as described above, then transferred onto PVDF membrane, detected by autoradiography, and cut out for hydrolysis with acid (6 N HCl). The phosphorylated amino acids and standards (P-Ser, P-Thr, and P-Tyr) were separated by thin-layer chromatography. Positions of the standards P-Ser, P-Thr, and P-Tyr were visualized by ninhydrin staining and are indicated by arrows. (C) In vivo metabolic labeling of transfected HEK 293 cells. […] Cells were washed with phosphate-free medium and starved for 90 minutes before incubation with [^32P]orthophosphate for another 4 hours. […] Total cell lysates were immunoprecipitated with anti-Flag antibody (M2) and subjected to separation on SDS-PAGE. Phosphorylated proteins were detected by autoradiography.\n(§2) Total cell lysates were subjected to immunoprecipitation, and the in vitro kinase reaction performed as described above.\n(§3) Cell lysis, immunoprecipitation with anti-Flag (M2), in vitro kinase assay, and detection of the phosphorylated proteins in the RXRα immunoprecipitated complexes were performed as described above.\n(§4) Cell culture and transient transfection was performed as follows. HEK 293 cells were grown in Dulbecco's modified Eagle's medium (DMEM) supplemented with 10% fetal bovine serum (FBS), 100U of penicillin per ml and 10 μg of streptomycion per ml at 37° C. in 5% CO2. For expression of RXR protein, 100-mm dishes of cells were transfected at 50% confluence with 2 μg of plasmid DNA using Lipofectamine (Life Technologies) as specified by the manufacturer. At 32 hours post-transfection, cells were starved by incubating in DMEM medium with 2.5% charcoal-treated fetal bovine serum or 0.1-0.5% calf bovine serum overnight, and then treated with indicated agents. Cells were harvested by aspirating medium, rinsing in phosphate buffered saline (PBS), and extracting into Lysis Buffer (30 mM Tris-HCL, pH 7.4, 0.5% Nonidet P-40, 10% glycerol, 150 mM NaCl, 1 mM EDTA, 40 mM NaF, 1 mM sodium orthovanadate, and 0.5 mM phenylmethylsufonyl fluoride, and 1× protease inhibitors, (Roche Diagnostics) or 1×SDS Sample Buffer.\n(§5) Immunoprecipitation was performed essentially as follows. Cells were solubilized in cold Lysis Buffer and subsequently clarified by centrifugation at 20,000 g for 10 minutes at 4° C. Immunoprecipitations were performed at 4° C. by incubating clarified cell extracts with the indicated antibodies (2 μg/ml) and protein A/G-agarose beads (1:30 dilution of a 50% suspension) on a rotating wheel for 4 hours to overnight. Agarose beads were pelleted by low speed centrifugation and washed extensively with ice-cold Lysis Buffer.\n(§6) Protein kinase assays were performed as follows. Immunoprecipitated complexes were resuspended in 15 μl of Kinase Assay Buffer (30 mM Tris-HCl, pH 7.4 and 10 mM MgCl2). Kinase reactions were initiated by addition of 2.5 μl of 50 μM [γ-^32P]ATP (10 μCi) to the immune-complexes, followed by incubation at 25° C. with occasional shaking for 20 minutes, and terminated by addition of 6 μl 4×SDS Sample Buffer. After heating at 100° C. for 5 minutes, the reaction mixtures were resolved by 4-12% SDS-PAGE. Incorporation of ^32P into RXR or other proteins was determined by autoradiography."}, "[2]": {"target": "T1, RXR-associated protein kinase in Flag-RXR immunocomplexes (Homo sapiens, UniProt P19793)", "T1 construct": "expressed in transfected cells; host or cells: HEK 293", "T1 sequence (P19793 1-462)": "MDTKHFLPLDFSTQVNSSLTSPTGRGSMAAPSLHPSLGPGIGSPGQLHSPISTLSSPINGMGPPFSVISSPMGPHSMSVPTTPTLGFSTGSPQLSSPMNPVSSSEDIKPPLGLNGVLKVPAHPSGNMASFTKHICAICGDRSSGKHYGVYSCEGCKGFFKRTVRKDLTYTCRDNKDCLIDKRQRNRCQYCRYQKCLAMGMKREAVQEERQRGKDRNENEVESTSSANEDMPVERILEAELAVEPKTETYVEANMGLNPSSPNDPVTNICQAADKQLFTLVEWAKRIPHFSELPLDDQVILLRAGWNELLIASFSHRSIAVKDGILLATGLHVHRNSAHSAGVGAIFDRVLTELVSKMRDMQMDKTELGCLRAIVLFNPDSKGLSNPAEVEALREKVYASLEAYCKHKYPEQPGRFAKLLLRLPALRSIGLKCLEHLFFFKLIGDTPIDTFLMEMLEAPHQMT", "experiment": "In vitro kinase reaction with [γ-32P]ATP on Flag-RXR immunocomplexes from transfected HEK 293 cells", "type": "cell-based", "conditions": "transfected HEK 293 cells treated with ligand before anti-Flag immunoprecipitation", "source_text": "as §1, §2, §3, §4, §5, §6"}, "[3]": {"target": "protein kinase A activity associated with endogenous RXRα (Mus musculus, UniProt P28700)", "sequence (P28700 whole entry)": "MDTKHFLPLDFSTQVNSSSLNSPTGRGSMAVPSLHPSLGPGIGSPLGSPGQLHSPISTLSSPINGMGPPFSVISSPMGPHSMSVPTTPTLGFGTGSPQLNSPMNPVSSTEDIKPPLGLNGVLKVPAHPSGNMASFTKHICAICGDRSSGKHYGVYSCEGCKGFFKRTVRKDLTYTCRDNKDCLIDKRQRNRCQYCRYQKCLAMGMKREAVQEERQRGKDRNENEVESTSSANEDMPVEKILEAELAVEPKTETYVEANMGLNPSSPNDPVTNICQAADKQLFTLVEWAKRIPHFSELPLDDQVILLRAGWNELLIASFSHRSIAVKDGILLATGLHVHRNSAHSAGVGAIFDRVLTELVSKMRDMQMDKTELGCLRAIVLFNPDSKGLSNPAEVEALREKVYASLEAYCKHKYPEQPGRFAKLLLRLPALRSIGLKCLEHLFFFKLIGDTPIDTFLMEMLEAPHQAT", "conditions": "3T3-L1 adipocytes, 10^-7 M, vs vehicle-treated cells", "experimental": "Kinase activity was determined in the immunoprecipitate using kemptide (LRRASLG; SEQ ID NO: 59) as a substrate. Samples 1,3: 0.1% DMSO (10 minutes).\nKinase activity in the immunoprecipitates was determined as described above using γ-ATP and synthetic peptide SEQ ID NO: 59."}},
  "data": [
    {"smiles": "CC(/C=C/[C@@H]1C[C@]1(C)c1ccc2c(c1)C(C)(C)CCC2(C)C)=C\\C(=O)O", "note": "[AGN194204]", "values": [
      {"measurement": "recruitment of kinase activity to the immunocomplex", "setting": "[1]; AF-2 region deleted from RXRα", "result": "kinase activity was not recruited"},
      {"measurement": "recruitment of kinase activity to the immunocomplex", "setting": "[1]; RXRα deletion mutants containing an intact E region", "result": "recruited kinase activity"},
      {"measurement": "phosphorylation of RXR and 160 kDa protein in Flag-RXR immunocomplexes", "setting": "[2]", "result": "contained a kinase phosphorylated RXR and a 160 kDa protein"},
      {"measurement": "PKA activity associated with endogenous RXRα", "setting": "[3]", "result": "increased about two-fold"}
    ]}
  ]
}
